Here are results for two compounds from publication PMC6120918, “Epigenetic modulator UVI5008 inhibits MRSA by interfering with bacterial gyrase” (Scientific Reports, 2018).

SMILES strings stand for the structures.

Assay [1] has as its target T1, DNA gyrase (Staphylococcus aureus, UniProt P0A0K8+P20831).
T1 construct: gene gyrA; recombinant DNA gyrase (A and B subunits; supercoiling assay kit); with DNA gyrase subunits A and B together (holoenzyme; target subunit not determined)
The assay is described as follows: gyrase supercoiling assay of relaxed pBR322, agarose gel. It counts as biochemical.

Assay [2] deals with T2, DNA gyrase subunit A (Staphylococcus aureus, UniProt P20831).
T2 construct: gene gyrA; recombinant DNA gyrase (A and B subunits; supercoiling assay kit); with DNA gyrase subunit B
T2 sequence (P20831 whole entry): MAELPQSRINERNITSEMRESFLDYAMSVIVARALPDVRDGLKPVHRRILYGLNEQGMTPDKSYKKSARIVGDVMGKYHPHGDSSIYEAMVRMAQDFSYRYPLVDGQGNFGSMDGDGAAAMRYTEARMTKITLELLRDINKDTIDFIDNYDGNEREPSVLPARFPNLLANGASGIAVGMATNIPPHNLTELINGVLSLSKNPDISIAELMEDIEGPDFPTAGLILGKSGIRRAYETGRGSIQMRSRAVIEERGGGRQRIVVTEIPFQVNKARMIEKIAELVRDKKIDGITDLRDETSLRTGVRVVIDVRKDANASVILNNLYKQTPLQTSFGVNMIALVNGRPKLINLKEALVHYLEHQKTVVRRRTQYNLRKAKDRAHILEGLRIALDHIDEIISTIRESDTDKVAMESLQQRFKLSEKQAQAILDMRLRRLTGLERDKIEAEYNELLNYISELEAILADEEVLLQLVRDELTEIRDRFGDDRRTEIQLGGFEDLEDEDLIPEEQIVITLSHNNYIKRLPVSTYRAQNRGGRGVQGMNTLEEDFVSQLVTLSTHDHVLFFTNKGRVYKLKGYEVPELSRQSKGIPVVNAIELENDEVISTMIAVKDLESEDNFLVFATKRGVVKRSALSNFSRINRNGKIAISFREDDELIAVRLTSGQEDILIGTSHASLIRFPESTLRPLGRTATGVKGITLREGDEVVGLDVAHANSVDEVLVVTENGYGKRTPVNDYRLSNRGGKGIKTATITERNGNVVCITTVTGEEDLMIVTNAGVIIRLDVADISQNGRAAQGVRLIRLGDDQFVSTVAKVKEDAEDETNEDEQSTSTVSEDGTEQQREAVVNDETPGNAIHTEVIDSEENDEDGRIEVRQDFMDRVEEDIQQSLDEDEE
Description: gyrase supercoiling assay, positive control at […]. It counts as biochemical.

T1 sequence (P20831 whole entry): as above
T1 sequence (P0A0K8 2-644): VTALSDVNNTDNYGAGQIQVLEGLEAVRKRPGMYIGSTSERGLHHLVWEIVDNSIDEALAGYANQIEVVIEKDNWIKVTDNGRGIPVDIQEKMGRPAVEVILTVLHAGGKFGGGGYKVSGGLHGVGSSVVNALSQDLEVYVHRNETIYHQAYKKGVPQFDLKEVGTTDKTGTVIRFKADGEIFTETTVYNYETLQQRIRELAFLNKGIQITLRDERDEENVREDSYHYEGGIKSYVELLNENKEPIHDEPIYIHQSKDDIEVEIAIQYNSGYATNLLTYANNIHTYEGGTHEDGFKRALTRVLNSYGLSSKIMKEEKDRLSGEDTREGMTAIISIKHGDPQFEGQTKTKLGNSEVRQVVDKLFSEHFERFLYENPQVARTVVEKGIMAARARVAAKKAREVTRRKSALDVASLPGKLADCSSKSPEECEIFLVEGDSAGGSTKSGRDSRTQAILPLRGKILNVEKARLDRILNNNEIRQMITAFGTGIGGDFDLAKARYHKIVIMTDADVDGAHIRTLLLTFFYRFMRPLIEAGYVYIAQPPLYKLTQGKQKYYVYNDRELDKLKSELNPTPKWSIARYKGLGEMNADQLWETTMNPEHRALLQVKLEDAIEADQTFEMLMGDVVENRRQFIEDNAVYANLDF

The term IC50 denotes the concentration that inhibits the measured activity by half. Low readings indicate greater potency, high ones weaker potency. `O=C(NCCSSCCNC(=O)/C(Cc1c[nH]c2ccc(Br)cc12)=N/O)/C(Cc1c[nH]c2ccc(Br)cc12)=N/O` [UVI5008]: the IC50 in assay [1] is 20.4 µM.
For `O=C(O)c1cn(C2CC2)c2cc(N3CCNCC3)c(F)cc2c1=O` [ciprofloxacin], the “gyrase supercoiling assay, positive control at 30 μM” value in assay [2] is reported as “Ciprofloxacin was used as the positive control since it blocks gyrase acting on the A subunit”.
